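Dose response: 5 concentrations. Exposure: 48 h. Format: 96-well plates. Endpoint: linear interpolation; highest concentration if not reached. At the GI50, growth is halved.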 Active and inactive are the calls of the source. Cut-off read from the data, not from the text of the source: active = GI50 up to about 1.1 µM and inactive = higher. Non-standard residues stand in square brackets, D forms with d. Residues, ends and D or L forms follow the SMILES beside them. ξ: configuration not given here. Pentanoyl(2-O,4-OH,5-Cl) = O=C(O)C(O)CC(O)CCl; Ile(3ξ) = CCC(C)[C@H](N)C(=O)O; NMeV = CN[C@H](C(=O)O)C(C)C; NMeA = CN[C@@H](C)C(=O)O; βAla = NCCC(=O)O
Assays:
Assay in all cases: NCI-60 cell line screen, 48 h
CCRF-CEM = tested on: CCRF-CEM
DMS-114 = tested on: DMS-114
EKVX = tested on: EKVX
HCT-15 = tested on: HCT-15
HOP-18 = tested on: HOP-18
HOP-92 = tested on: HOP-92
HT-29 = tested on: HT-29
KM-20L2 = tested on: KM-20L2
SF-295 = tested on: SF-295
SK-MEL-28 = tested on: SK-MEL-28
UACC-62 = tested on: UACC-62
786-0 = tested on: 786-0
CAKI-1 = tested on: CAKI-1
MDA-MB-231 = tested on: MDA-MB-231
MDA-N = tested on: MDA-N
NCI/ADR-RES = tested on: NCI/ADR-RES
PC-3 = tested on: PC-3
T47D = tested on: T47D
XF498 = tested on: XF498
SNB-78 = tested on: SNB-78

SMILES	GI50 (CCRF-CEM)	GI50 (DMS-114)	GI50 (EKVX)	GI50 (HCT-15) [µM]	GI50 (HOP-18)	GI50 (HOP-92)	GI50 (HT-29)	GI50 (KM-20L2)	GI50 (SF-295)	GI50 (SK-MEL-28)	GI50 (UACC-62)	GI50 (786-0)	GI50 (CAKI-1)	GI50 (MDA-MB-231)	GI50 (MDA-N)	GI50 (NCI/ADR-RES)	GI50 (PC-3)	GI50 (T47D)	GI50 (XF498)	GI50 (SNB-78)
Nc1ccccc1S(=O)(=O)c1ccccc1	> 100 µM (inactive)	> 100 µM (inactive)	> 100 µM (inactive)	> 100	> 100 µM (inactive)	> 100 µM (inactive)	> 100 µM (inactive)	> 100 µM (inactive)	> 100 µM (inactive)	> 100 µM (inactive)	> 100 µM (inactive)	–	–	–	–	–	–	–	–	–
CN(C)c1ccc(C2CC(=O)CC(c3ccc(N(C)C)cc3)C23C(=O)NC(=O)NC3=O)cc1 (stereo not drawn)	> 25 µM (inactive)	–	> 25 µM (inactive)	> 25	–	5.18 µM (inactive)	> 25 µM (inactive)	–	19.8 µM (inactive)	> 25 µM (inactive)	19.5 µM (inactive)	12.4 µM (inactive)	> 25 µM (inactive)	> 25 µM (inactive)	> 25 µM (inactive)	> 25 µM (inactive)	> 25 µM (inactive)	> 25 µM (inactive)	–	–
Cc1nn(C)c2c1C(=O)N(C)CC(=O)N2C	> 100 µM (inactive)	–	> 100 µM (inactive)	69.7	–	> 100 µM (inactive)	> 100 µM (inactive)	–	> 100 µM (inactive)	> 100 µM (inactive)	> 100 µM (inactive)	> 100 µM (inactive)	> 100 µM (inactive)	–	> 100 µM (inactive)	–	> 100 µM (inactive)	–	–	–
CCC(C)[C@@H]1NC(=O)[C@@H]2CCCN2C(=O)C(CC(O)CCl)OC(=O)CCNC(=O)[C@H](C)N(C)C(=O)[C@H](C(C)C)N(C)C1=O (stereo partly drawn) (cyclo([Ile(3ξ)][NMeV][NMeA][βAla][Pentanoyl(2-O,4-OH,5-Cl)]P))	0.483 µM (active)	–	> 100 µM (inactive)	> 80.2	–	1.09 µM (active)	3.12 µM (inactive)	–	2.31 µM (inactive)	–	0.923 µM (active)	–	> 100 µM (inactive)	> 47.5 µM (inactive)	> 100 µM (inactive)	> 100 µM (inactive)	74.6 µM (inactive)	3.94 µM (inactive)	–	–
Cc1c(Cl)c(=O)oc2cc(OCC(=O)c3ccccc3)ccc12	> 100 µM (inactive)	–	> 100 µM (inactive)	> 100	–	97.5 µM (inactive)	> 100 µM (inactive)	–	> 100 µM (inactive)	> 100 µM (inactive)	> 100 µM (inactive)	–	> 100 µM (inactive)	29.4 µM (inactive)	> 100 µM (inactive)	> 100 µM (inactive)	> 100 µM (inactive)	> 100 µM (inactive)	–	–
O=c1c(-c2ccccc2)c2oc(c1-c1ccccc1)CS(=O)(=O)CCC2	23.8 µM (inactive)	39.5 µM (inactive)	> 100 µM (inactive)	15.6	< 0.01 µM (active)	> 100 µM (inactive)	25.5 µM (inactive)	–	> 100 µM (inactive)	17.5 µM (inactive)	21.5 µM (inactive)	19.8 µM (inactive)	28.8 µM (inactive)	–	–	–	–	–	5.97 µM (inactive)	–
CC(C)CC(N)C(=O)NC(CNC(CCC(N)=O)C(=O)NC(CC(C)C)C(=O)NC(CC(C)C)C(=O)O)Cc1ccc2ccccc2c1 (stereo not drawn)	> 10 µM (inactive)	–	> 10 µM (inactive)	> 10	–	> 10 µM (inactive)	> 10 µM (inactive)	–	> 10 µM (inactive)	> 10 µM (inactive)	> 10 µM (inactive)	> 10 µM (inactive)	9.31 µM (inactive)	> 10 µM (inactive)	> 10 µM (inactive)	> 10 µM (inactive)	> 10 µM (inactive)	–	–	–
COc1ccc(C2c3cc4c(cc3OC(NCCO)C2C)OCO4)cc1 (stereo not drawn)	21.2 µM (inactive)	–	32 µM (inactive)	17.7	–	34.3 µM (inactive)	20 µM (inactive)	–	27.9 µM (inactive)	25.1 µM (inactive)	28.2 µM (inactive)	–	23.5 µM (inactive)	26.9 µM (inactive)	18.2 µM (inactive)	–	23.4 µM (inactive)	30.3 µM (inactive)	–	–
CC(C(=O)NCCNC(=O)CCCC(=O)N(C)O)C(=O)NCCNC(=O)CCCC(=O)N(C)O	> 100 µM (inactive)	–	> 100 µM (inactive)	> 100	–	> 100 µM (inactive)	> 100 µM (inactive)	–	> 100 µM (inactive)	20.1 µM (inactive)	> 100 µM (inactive)	–	> 100 µM (inactive)	> 100 µM (inactive)	> 100 µM (inactive)	> 100 µM (inactive)	> 100 µM (inactive)	> 100 µM (inactive)	–	–
O=C(O)c1ccc(Nc2c3ccccc3nc3ccccc23)cc1	26.9 µM (inactive)	> 100 µM (inactive)	> 100 µM (inactive)	64.4	> 100 µM (inactive)	> 65 µM (inactive)	97.9 µM (inactive)	> 100 µM (inactive)	45.5 µM (inactive)	> 100 µM (inactive)	47.4 µM (inactive)	–	49.9 µM (inactive)	–	–	> 76 µM (inactive)	–	–	–	30.8 µM (inactive)

Reference: ChEMBL document CHEMBL1201862, “PubChem BioAssay data set” (2004)
